Experimental data: patent US5962534A, “Regulating gene expression using retinoids with CH2 OH or related groups at the side chain terminal position” (Cornell Research Foundation, Inc., priority 1997, dated 1999)
Where two headings read alike, the source gives them in different places.

Assays:
[1] = tested on: RARE-β-galactosidase (F9-RARE-β-galactosidase reporter cell line); experiment: Transcription of RARE-β-galactosidase in F9-RARE-β-galactosidase reporter cell line; type: cell-based; conditions: Mus musculus; media lacking serum
Description: Cells were treated with different concentrations of retinoids in media lacking serum, harvested and assayed for β-galactosidase activity. […] The β-galactosidase activity in this cell line reflects the activation of the RARs.

F9 stem cells [2] = conditions: refs (37), (38), cited from earlier work
RARs α, β, or γ [3] = conditions: Mangelsdorf et al (14); cited from earlier work
RARs α, β, or γ [4] = experiment: Inhibition of 3H-all-trans-retinoic acid binding to RARs (stated for all subtypes together); conditions: concentrations up to 50,000 nM
Description: (§6) Retinoids were assayed for their ability to bind members of the family of the retinoic acid receptors, the RARs, as follows:
(§7) COS-1 cells were transfected by DEAE-dextran with pSG5 expression vectors containing cDNAs for mouse RARs α, β, or γ or RXRs α, β, or γ. […] Nucleosol or cytosol fractions were prepared as described in Nervi, C., et al (30) and Nervi, C., et al (31) and stored at -70° C. until use. Aliquots of nucleosol or cytosol were incubated in nuclei lysis buffer as described in Nervi, C., et al (30) with tritiated ligands for 4 h at 4° C. […] For competitive binding assays, the incubations were performed with increasing concentrations of unlabeled competing ligand and a fixed concentration of the radioligand (10 nM ^3 H-retinoic acid). In saturation kinetic studies, incubations were performed in the presence of increasing concentrations of the indicated radioligand. For all binding assays, bound was separated from free radioactivity as described in Levin, A. A., et al (29).

Hoxa-1 = Hoxa-1 gene expression in F9 stem cells by Northern blot; type: cell-based; conditions: Mus musculus, F9, 72 h, read-out: Hoxa-1 transcripts induction
Source text: (§1) Teratocarcinoma stem cells can be induced to differentiate in monolayer culture by retinoic acid over a 3-4 day period into nonmalignant endoderm cells resembling the extraembryonic endoderm of the mouse blastocyst as described in Gudas, L. J., et al (27). The F9 teratocarcinoma stem cell line is used as a model tumor cell differentiation system because F9 stem cells share similar biochemical, immunological and morphological characteristics with early mouse embryonic stem cells and additionally, large numbers of cells can be cultured and experimentally manipulated. The expression of several homeobox genes including Hoxa-1 is induced by RA in mouse teratocarcinoma cell lines as described in LaRosa, G. J., et al (34) and LaRosa, G. J., et al (35). […] See LaRosa, G. L, et al (34). Other genes such as laminin B1 are activated subsequent to the activation of Hox 1.6 by retinoic acid as described in Vasios, G. W., et al (36).

laminin B1 = experiment: Laminin B1 gene expression in F9 stem cells by Northern blot; type: cell-based; conditions: Mus musculus, F9, 72 h, read-out: Laminin B1 expression induction
Source text: as §1

RXRs α, β, or γ = experiment: Inhibition of 3H-9-cis retinoic acid binding to RXRs; design: species or system mouse; conditions: for inhibition of 3H-9-cis retinoic acid binding to RXRs: data not shown
Source text: See Levin, A. A., et al (29).

[5] = tested on: cellular retinoic acid binding protein I (CRABP I); experiment: Inhibition of all-trans-3H-retinoic acid binding to CRABP I; conditions: data not shown
psoriatic arthritis = experiment: Treatment of patients with psoriatic arthritis; type: in vivo, human; conditions: oral, 50 mg/square meter per day
F9 stem cells [6] = experiment: Metabolism of 3H-4-hydroxyretinol in F9 cells (HPLC); type: in vitro ADME, mouse; conditions: besides 4-oxo-retinol; 50 nM
Description: (§2) ^3 H-4-hydroxyretinol and ^3 H-4-oxo-retinol were purified from RA treated, differentiated F9 cells (ATCC CRL 1720) after the differentiated cells were incubated with ^3 H-retinol for 18 h. The identities of purified ^3 H-4-hydroxyretinol and ^3 H-4-oxo-retinol were verified by matching both the elution times on the HPLC and the spectra of known standards.
(§3) F9 stem cells or retinoic acid-treated cells (72 h) were cultured in the presence of 50 nM of either ^3 H-4-hydroxyretinol or ^3 H-4-oxo-retinol for different periods of time.
(§4) FIGS. 4A-4D depict HPLC analysis after incubation in the presence of 50 nM ^3 H-4-hydroxyretinol for periods of time as indicated and extraction using the method described in McClean, S. W., et al (15). F9 stem cells are shown in FIGS. 4A-4D to convert 4-hydroxyretinol to 4-oxo-retinol. The rate of this conversion was virtually identical in both stem and retinoic acid-treated cells. This rate was calculated to be about 20% in a period of 15 h.

[7] = as above; type: in vitro ADME, mouse; conditions: mouse, f9 cells; 50 nM, 15 h; virtually identical in stem and retinoic acid-treated cells; read-out: conversion of 4-hydroxyretinol to 4-oxo-retinol
Description: as §2, §3, §4

[8] = tested on: advanced head and neck cancer; experiment: Treatment of patients with advanced head and neck cancer; type: in vivo, human; conditions: oral, 100 mg/square meter per day; for survival beyond the median: and/or reduced tumor burden
Source text: Current systemic chemotherapy regimens are unable to prolong survival of patients with advanced head and neck cancer.

RAR-γ = molecular target: T1, RAR-γ (Mus musculus, UniProt P18911); experiment: Competitive binding of 3H-all-trans-retinoic acid to RAR-γ
T1 sequence (P18911 1-458): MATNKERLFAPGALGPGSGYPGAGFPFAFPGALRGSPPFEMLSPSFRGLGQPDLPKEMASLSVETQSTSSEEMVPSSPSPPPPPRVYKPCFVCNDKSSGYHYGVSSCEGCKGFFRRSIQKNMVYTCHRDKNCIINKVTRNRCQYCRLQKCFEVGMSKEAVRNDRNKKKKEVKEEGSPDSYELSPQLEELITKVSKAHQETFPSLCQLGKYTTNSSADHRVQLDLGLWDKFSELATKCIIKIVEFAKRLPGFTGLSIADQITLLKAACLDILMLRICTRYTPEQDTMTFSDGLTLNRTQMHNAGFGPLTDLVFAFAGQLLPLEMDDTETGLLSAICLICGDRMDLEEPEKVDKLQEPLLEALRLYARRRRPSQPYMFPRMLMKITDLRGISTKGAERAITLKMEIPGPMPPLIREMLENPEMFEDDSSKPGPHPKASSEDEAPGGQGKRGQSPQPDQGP
Description: as §6, §7

deep (cystic) acne = experiment: Treatment of patients with deep (cystic) acne; type: in vivo, human; conditions: oral, 100 mg/square meter per day; for mean reduction in lesion counts: end of 3 to 6 months; for acne clearance: after discontinuation
Source text: A very prolonged remission, and potentially permanent cure can be obtained.

RAR-α = molecular target: T2, RAR-α (Mus musculus, UniProt P11416); experiment: Competitive binding of 3H-all-trans-retinoic acid to RAR-α; conditions: concentration to inhibit 50% binding of 3H-all-trans-retinoic acid (10 nM); mean ± SD, at least 3 replicate experiments
T2 construct: expressed in transfected cells; host or cells: COS-1
T2 sequence (P11416 1-462): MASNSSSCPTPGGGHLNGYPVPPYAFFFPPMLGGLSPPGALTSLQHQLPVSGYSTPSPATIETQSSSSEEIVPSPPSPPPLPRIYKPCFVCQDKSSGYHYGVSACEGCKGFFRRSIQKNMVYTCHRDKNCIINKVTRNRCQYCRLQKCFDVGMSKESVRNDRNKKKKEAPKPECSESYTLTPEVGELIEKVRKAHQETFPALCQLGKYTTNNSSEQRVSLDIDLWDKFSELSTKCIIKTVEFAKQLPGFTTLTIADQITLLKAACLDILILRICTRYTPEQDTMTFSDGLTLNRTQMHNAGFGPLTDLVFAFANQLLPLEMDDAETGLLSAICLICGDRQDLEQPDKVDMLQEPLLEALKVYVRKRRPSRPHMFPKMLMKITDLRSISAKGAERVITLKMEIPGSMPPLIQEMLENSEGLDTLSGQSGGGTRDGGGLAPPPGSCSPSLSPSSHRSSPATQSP
Description: as §6, §7

[9] = tested on: aging or photodamaged skin; experiment: Treatment of patients with aging or photodamaged skin; type: in vivo, human; conditions: oral 100 mg/square meter per day or topical 10 mg per square inch per day, 4 to 8 months
breast cancer = experiment: Treatment of patients with breast cancer; type: in vivo, human; conditions: oral, 100 mg/square meter per day
RAR-β = molecular target: T3, RAR-β (Mus musculus, UniProt P22605); experiment: Competitive binding of 3H-all-trans-retinoic acid to RAR-β
T3 sequence (P22605 1-448 isoform P22605-3): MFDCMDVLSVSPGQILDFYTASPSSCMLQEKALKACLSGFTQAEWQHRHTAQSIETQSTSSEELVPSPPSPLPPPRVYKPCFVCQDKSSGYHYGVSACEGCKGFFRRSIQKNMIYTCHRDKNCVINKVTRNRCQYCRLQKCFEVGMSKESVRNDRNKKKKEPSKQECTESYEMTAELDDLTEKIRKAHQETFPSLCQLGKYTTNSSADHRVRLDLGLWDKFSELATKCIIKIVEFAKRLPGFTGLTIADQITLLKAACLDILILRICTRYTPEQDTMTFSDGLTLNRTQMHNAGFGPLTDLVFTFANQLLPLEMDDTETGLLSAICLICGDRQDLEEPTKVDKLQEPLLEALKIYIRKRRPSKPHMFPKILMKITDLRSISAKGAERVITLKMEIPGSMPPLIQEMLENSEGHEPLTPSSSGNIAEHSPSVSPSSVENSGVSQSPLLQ
Description: as §6, §7

F9 stem cells [10] = experiment: Intracellular concentration in differentiating F9 stem cells; type: in vitro ADME, mouse; conditions: calculated
Water solubility = type: physicochemical; conditions: no data shown
[11] = tested on: acute promyelocytic leukemia; experiment: Treatment of acute promyelocytic leukemia patients; type: in vivo, human; conditions: oral, 100 mg/square meter per day
Description: Patients with morphologic diagnostic criteria for acute promyelocytic leukemia (M3 or M3 variant subtype) by karyotyping or PCR analysis, including the […] (q22; q12-21) translocation, are treated with oral all-trans-4-oxo-retinol at a dose of 100 mg/square meter of body surface area per day. The drug is formulated in soft gelatin capsules which are administered once or twice a day to provide the dose as stated. The drug is administered for 40 to 60 days until remission induction occurs as indicated by normal karyotype, disappearance of coagulation abnormalities (e.g., increased platelet count and plasma fibrinogen level), observation of differentiation of cancer cells and the appearance of mature granulocytic markers in cell surface immunophenotyping, as indicated by reduced number of cells expressing CD33 and greater portion of cells expressing CD16. Patients with newly diagnosed disease then receive all-trans-4-oxo-retinol for 30 days after remission induction; then, either conventional consolidation therapy (e.g., cytosine arabinoside) or continued treatment with all-trans-4-oxo-retinol alone is continued. During remission induction, liver function tests are performed and serum cholesterol and triglycerides are measured twice a week and bone marrow aspiration is performed once a week until complete remission or failure is documented.

F9 stem cells [12] = experiment: Metabolism / half-life of retinoids in F9 cells; type: in vitro ADME, mouse
Description: as §2, §3
(§5) FIGS. 5A-5D depict HPLC analysis after incubation in the presence of 50 nM ^3 H-4-oxo-retinol for periods of time as indicated and extraction using the method described in McClean, S. W., et al (15). The results are the same in both stem and retinoic acid- treated cells.

[13] = Metabolism / half-life of retinoids in F9 cells; type: in vitro ADME, mouse; conditions: mouse; 50 nM; F9 stem or differentiating cells; FIG. 5
Description: as §2, §3, §5

Row | Structure (SMILES) | EC50 [1] [nM] | fold induction at 1 µM (Hoxa-1) | fold induction at 1 µM (laminin B1) | inhibition of binding of all-trans-3H-retinoic acid to CRABP I [5] | psoriatic arthritis symptoms (psoriatic arthritis) | tumor burden, head and neck cancer [8] | survival beyond the median [8] | IC50 (RAR-γ) [nM] | mean reduction in lesion counts (deep (cystic) acne) | acne clearance (deep (cystic) acne) | IC50 (RAR-α) [nM] | wrinkles, smoothness, pigmented areas of skin [9] | tumor burden, breast cancer (breast cancer) | inhibition of 3H-9-cis retinoic acid binding to RXRs (RXRs α, β, or γ) | IC50 (RAR-β) [nM] | further results
1 | CC1=C(/C=C/C(C)=C/C=C/C(C)=C/C(=O)O)C(C)(C)CCC1 [RA, all-trans-retinoic acid] | 9 | – | – | – | – | – | – | – | – | – | – | – | – | – | – | half-life in differentiated retinoic acid-treated F9 stem cells (F9 stem cells [2]; differentiated, enzyme induced): < 3 h; half-life in F9 stem cells (F9 stem cells [2]; undifferentiated): 3 h; binding to α-, β- and γ-retinoic acid receptors (RARs α, β, or γ [3]): binds equally well to α-, β-, and γ-retinoic acid receptors
2 | CC1=C(/C=C/C(C)=C/C=C/C(C)=C/CO)C(C)(C)CCC1 [retinol, reference compound] | > 3000 | 4 | 2 | – | – | – | – | – | – | – | – | – | – | – | – | inhibition of all-trans-3H-retinoic acid binding to any of the RARs (RARs α, β, or γ [4]): no apparent inhibition; inhibition of 3H-9-cis retinoic acid binding to the RXRs (RXRs α, β, or γ; concentrations up to 50,000 nM): no apparent inhibition
3 | CC1=C(/C=C/C(C)=C/C=C/C(C)=C/CO)C(C)(C)CCC1O (stereo not drawn) [4-OH retinol] | 76 | 9 | 3 | unable to inhibit | fewer tender joints and a decreased duration of morning stiffness | reduced tumor burden | 4-6 months | 3400 ± 1600 | greater than 85% | in some cases complete clearance occurs | 5000 ± 1400 | fewer and reduced depth of wrinkles, increased smoothness of the skin, and a reduction in pigmented areas of the skin | reduced tumor burden | Neither the 4-hydroxyretinol nor the 4-oxo-retinol inhibited | 3800 ± 1100 | other metabolites of 4-hydroxyretinol (F9 stem cells [6]): No other metabolite; metabolised at 15 h, 0.05 µM [7]: ~20%
4 | CC1=C(/C=C/C(C)=C/C=C/C(C)=C/CO)C(C)(C)CCC1=O [4-oxo-retinol, all-trans-4-oxo-retinol] | 42 | 25 | 7 | unable to inhibit | fewer tender joints and a decreased duration of morning stiffness | reduced tumor burden | 4-6 months | 3200 ± 520 | greater than 85% | in some cases complete clearance occurs | 330 ± 54 | fewer and reduced depth of wrinkles, increased smoothness of the skin, and a reduction in pigmented areas of the skin | reduced tumor burden | Neither the 4-hydroxyretinol nor the 4-oxo-retinol inhibited | 420 ± 110 | intracellular concentration (F9 stem cells [10]): approximately 85 nM; water solubility compared with all-trans-retinoic acid (Water solubility): more water soluble; inhibition of 3H-retinoic acid binding to RAR-γ, fold weaker than RAR-α and RAR-β (RAR-γ; relative to RAR-α and RAR-β, 240 min): 10 fold; outcome of treatment in acute promyelocytic leukemia [11]: Long term cures are considered to be obtainable; half-life in F9 stem cells (F9 stem cells [12]; 50 nM, order of magnitude in words): on the order of days; metabolites of 4-oxo-retinol detected (F9 stem cells [12]; 50 nM, presumed 4-oxo-retinyl esters): small amounts of several very hydrophobic retinoids; stability in F9 stem vs differentiating cells (F9 stem cells [12]; comparison of F9 stem and differentiating cells): equally stable; induction of enzyme degrading the retinoid (F9 stem cells [12]; summary statement, vs all-trans-retinoic acid): does not induce production of enzyme which degrades it to inactive form; 4-oxo-retinoic acid formed from 4-oxo-retinol (F9 stem cells [12]; up to 15 h, 50 nM): No 4-oxo-retinoic acid was detected; half-life at 0.05 µM [13]: > 15 h
